For orientation: IC50 means the concentration that gives 50% inhibition.

The values that follow come from article PMC8510124, “Design, Synthesis, Biological Evaluation and In Silico Study of Benzyloxybenzaldehyde Derivatives as Selective ALDH1A3 Inhibitors” (Molecules, 2021).

Test [1] deals with T1, ALDH1A3 (Homo sapiens, UniProt P47895).
T1 construct: recombinant, N-terminal (His)6 tag
T1 sequence (P47895 2-512): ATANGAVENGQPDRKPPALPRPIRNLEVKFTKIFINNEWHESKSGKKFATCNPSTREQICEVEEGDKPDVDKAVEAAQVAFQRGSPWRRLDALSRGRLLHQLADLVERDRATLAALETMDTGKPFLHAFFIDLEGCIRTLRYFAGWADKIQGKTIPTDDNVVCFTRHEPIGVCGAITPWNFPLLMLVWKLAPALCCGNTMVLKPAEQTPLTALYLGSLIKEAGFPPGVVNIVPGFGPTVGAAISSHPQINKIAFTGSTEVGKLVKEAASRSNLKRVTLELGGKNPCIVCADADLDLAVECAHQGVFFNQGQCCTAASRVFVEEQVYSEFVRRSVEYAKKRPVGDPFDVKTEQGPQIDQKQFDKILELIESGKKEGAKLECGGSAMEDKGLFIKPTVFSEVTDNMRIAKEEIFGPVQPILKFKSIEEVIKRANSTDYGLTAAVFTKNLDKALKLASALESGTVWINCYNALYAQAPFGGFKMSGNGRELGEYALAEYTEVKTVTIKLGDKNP
Briefly: fluorimetric NADH assay, single point […], […] hexanal (near Km). Particulars: read-out: Remaining Activity ± SE (%) at 10 μM Compound / ALDH1A3 / [S] near Km (10 μM Hex). Type of test: biochemical.

The target in test [2] is T1, ALDH1A3. Briefly: fluorimetric NADH dehydrogenase assay, […] hexanal, IC50 curve. Type of test: biochemical. Particulars: read-out: IC50 (μM) ± SE ALDH1A3.

On to `COc1cc(C=O)ccc1OC(=O)c1ccc(Cl)cc1` [ABMM-1, 4-Formyl-2-methoxyphenyl 4-Chlorobenzoate], for which the remaining activity at 10 µM on ALDH1A3 [1] was found to be 21.07 ± 0.1%.

In the case of `O=Cc1ccc(OCc2ccc(Cl)cc2)cc1` [ABMM-15, 4-((4-Chlorobenzyl)oxy)benzaldehyde], the IC50 on ALDH1A3 [2] is 0.23 ± 0.05 µM.

Turning to `COc1cc(C=O)ccc1OCc1ccc(Cl)cc1` [ABMM-16, 4-((4-Chlorobenzyl)oxy)-3-methoxybenzaldehyde], on ALDH1A3 [2], the IC50 stood at 1.29 ± 0.1 µM.

In the case of `COc1cc(C=O)cc(OC)c1OC(=O)c1ccc(F)cc1` [ABMM-18, 4-Formyl-2,6-dimethoxyphenyl 4-Fluorobenzoate], at ALDH1A3 [1], the remaining activity at 10 µM was 16 ± 3.4%.
